Experimental data from patent publication US20100056535A1, “Inhibitors of HIV-1 reverse transcriptase” (Roche Palo Alto LLC, priority 2008, published 2010).
Where two headings read alike, the source gives them in different places.

Tests used:
[1] = test system: HXB2-strain of HIV-1 in MT4 cells; assay: Antiviral assay: protection of HIV-1-infected MT4 cells from cell death (MTT); format: cell-based
Experimental: Anti-HIV-1 antiviral activity was assessed using an adaptation of the method of Pauwels et al. (Pauwels et al., J Virol Methods 1988 20:309-321). The method is based on the ability of compounds to protect HIV-1-infected T lymphoblastoid cells (MT4 cells) from cell-death mediated by the infection. The endpoint of the assay was calculated as the concentration of compound at which the cell viability of the culture was preserved by 50% (‘50% inhibitory concentration’, IC50). The cell viability of a culture was determined by the uptake of soluble, yellow 3-[4,5-dimethylthiazol-2-yl]-2,5-diphenyltetrazolium bromide (MTT) and its reduction to a purple insoluble formazan salt. After solubilization, spectrophotometric methods were employed to measure the amount of formazan product.
MT4 cells were prepared to be in logarithmic-phase growth and a total of 2×10^6 cells infected with the HXB2-strain of HIV-1 at a multiplicity of 0.0001 infectious units of virus per cell in a total volume of between 200-500 microliters. The cells were incubated with virus for one hour at 37° C. before removal of virus. The cells are then washed in 0.01 M phosphate buffered saline, pH 7.2 before being resuspensed in culture medium for incubation in culture with serial dilutions of test compound. The culture medium used was RPMI 1640 without phenol red, supplemented with penicillin, streptomycin, L-glutamine and 10% fetal calf serum (GM10).
Test compounds were prepared as 2 mM solutions in dimethyl sulfoxide (DMSO). Four replicate, serial 2-fold dilutions in GM10 were then prepared and 50 microliters amounts placed in 96-well plates over a final nanomolar concentration range of 625-1.22. Fifty microliters GM10 and 3.5×10^4 infected cells were then added to each well. Control cultures containing no cells (blank), uninfected cells (100% viability; 4 replicates) and infected cells without compound (total virus-mediated cell death; 4 replicates) were also prepared. The cultures were then incubated at 37° C. in a humidified atmosphere of 5% CO2 in air for 5 days.
A fresh solution of 5 mg/mL MTT was prepared in 0.01 M phosphate buffered saline, pH 7.2 and 20 microliters added to each culture. The cultures were further incubated as before for 2 hours. They were then mixed by pipetting up and down and 170 microliters of Triton X-100 in acidified isopropanol (10% v/v Triton X-100 in 1:250 mixture of concentrated HCl in isopropanol). When the formazan deposit was fully solubilized by further mixing, the absorbance (OD) of the cultures was measured at 540 nm and 690 nm wavelength (690 nm readings were used as blanks for artifacts between wells). The percent protection for each treated culture was then calculated from the equation: […]
The IC50 can be obtained from graph plots of percent protection versus log10 drug concentration.

HIV-1 RT = HIV-1 RT (Human immunodeficiency virus type 1 group M subtype B, UniProt P03366); assay: Heteropolymer HIV Reverse Transcriptase Assay: Inhibitor IC50 Determination; format: biochemical
Experimental: Heteropolymer HIV Reverse Transcriptase Assay: Inhibitor IC50 Determination
HIV-1 RT assay was carried out in 96-well Millipore MultiScreen MADVNOB50 plates using purified recombinant enzyme and a poly(rA)/oligo(dT)16 template-primer in a total volume of 50 μL. The assay constituents were 50 mM Tris/HCl, 50 mM NaCl, 1 mM EDTA, 6 mM MgCl2, 5 μM dTTP, 0.15 μCi [^3H] dTTP, 5 μg/ml poly (rA) pre annealed to 2.5 μg/ml oligo (dT)16 and a range of inhibitor concentrations in a final concentration of 10% DMSO. Reactions were initiated by adding 4 nM HIV-1 RT and after incubation at 37° C. for 30 min, they were stopped by the addition of 50 μl ice cold 20% TCA and allowed to precipitate at 4° C. for 30 min. The precipitates were collected by applying vacuum to the plate and sequentially washing with 3×200 μl of 10% TCA and 2×200 μl 70% ethanol. Finally, the plates were dried and radioactivity counted in a Packard TopCounter after the addition of 25 μl scintillation fluid per well. IC50's were calculated by plotting % inhibition versus log10 inhibitor concentrations. Representative IC50 data is depicted in TABLE 2.

[2] = Human immunodeficiency virus 1, HXB2, MT4, read-out: IC50 Antiviral wt:fbs:10%
[3] = purified recombinant enzyme, poly(rA)/oligo(dT)16 template-primer, read-out: Polymerase Inhibition IC50
[4] = Human immunodeficiency virus 1, HXB2, wild type virus, MT4 cells, 10% fetal calf serum, read-out: IC50 Antiviral wt:fbs:10%

| Compound | IC50 [1, 2] | IC50 (HIV-1 RT; [3]) | IC50 [1, 4] | IC50 (HIV-1 RT) |
| --- | --- | --- | --- | --- |
| N#Cc1cc(Cl)cc(Oc2c(F)c(CCc3ccncc3)[nH]c(=O)c2Br)c1 [Compound I-20, 3-[3-Bromo-5-fluoro-2-oxo-6-(2-pyridin-4-yl-ethyl)-1,2-dihydro-pyridin-4-yloxy]-5-chloro-benzonitrile] | 4.4 nM | 1.5 nM |  |  |
| N#Cc1cc(Cl)cc(Oc2c(CSCc3ccccc3)c[nH]c(=O)c2Br)c1 [II-18, 3-(5-Benzylsulfanylmethyl-3-bromo-2-oxo-1,2-dihydro-pyridin-4-yloxy)-5-chloro-benzonitrile] |  |  | 4.2 nM | 0.4 nM |
| CCc1c(C)[nH]c(=O)c(Br)c1Oc1cc(Cl)cc(C#N)c1 [II-6, 3-(3-Bromo-5-ethyl-6-methyl-2-oxo-1,2-dihydro-pyridin-4-yloxy)-5-chloro-benzonitrile] |  | 7.3 nM | 2.4 nM |  |
| N#Cc1cc(Cl)cc(Oc2cc(CCc3nc4ccccc4o3)[nH]c(=O)c2Cl)c1 [Compound I-19, 3-[6-(2-Benzooxazol-2-yl-ethyl)-3-chloro-2-oxo-1,2-dihydro-pyridin-4-yloxy]-5-chloro-benzonitrile] | 6.9 nM | 6.3 nM |  |  |
| C=Cc1c(Oc2cc(Cl)cc(C#N)c2)c(CC)c[nH]c1=O [II-3, 3-Chloro-5-(5-ethyl-2-oxo-3-vinyl-1,2-dihydro-pyridin-4-yloxy)-benzonitrile] |  | 5.6 nM | 3.3 nM |  |
